Data published in patent publication US20250296959A1, “B7-H3 TARGETING PEPTIDES AND CONSTRUCTS THEREOF” (Mariana Oncology Inc., priority 2024, published 2025).
Starred links: 1 amine or outer side, 2 acyl side, 3 side chain; linkers in the order of their positions; H or OH if unused. Positions of bridges follow the written chain, without caps; N, C: chain ends. Non-standard residues stand in square brackets, D forms with d. Residues, ends and D or L forms follow the SMILES beside them. Groups on a side chain read outwards from the residue. *: point of attachment. X4 = O=C(O)CN1CCN(CC(=O)O)CCN([C@H](CCC(=O)*)C(=O)O)CCN(CC(=O)O)CC1; Ala(piperidin-4-yl) = O=C([C@H](CC1CCN([*:3])CC1)N[*:1])[*:2]; Phe(3R-OH) = O=C([C@@H](N[*:1])[C@H](O[*:3])c1ccccc1)[*:2]; DOTA = O=C(O)CN1CCN(CC(=O)O)CCN(CC(=O)*)CCN(CC(=O)O)CC1; Trp(4-Cl) = N[C@@H](Cc1c[nH]c2cccc(Cl)c12)C(=O)O; Trp(4-Me) = Cc1cccc2[nH]cc(C[C@H](N)C(=O)O)c12; Trp(5-F) = N[C@@H](Cc1c[nH]c2ccc(F)cc12)C(=O)O; Trp(5-Me) = Cc1ccc2[nH]cc(C[C@H](N)C(=O)O)c2c1; Trp(1-Me) = Cn1cc(C[C@H](N)C(=O)O)c2ccccc21; Ala(4-THP) = N[C@@H](CC1CCOCC1)C(=O)O; Phe(2-OH) = N[C@@H](Cc1ccccc1O)C(=O)O; Phe(2-F) = N[C@@H](Cc1ccccc1F)C(=O)O; Val(3-OH) = CC(C)(O)[C@H](N)C(=O)O; Tle = CC(C)(C)[C@H](N)C(=O)O; hLeu = CC(C)CC[C@H](N)C(=O)O; PEG2 = NCCOCCOCCC(=O)O

Target: T1, human 4lg B7-H3 (Homo sapiens, UniProt Q5ZPR3)
T1 sequence (Q5ZPR3 29-534): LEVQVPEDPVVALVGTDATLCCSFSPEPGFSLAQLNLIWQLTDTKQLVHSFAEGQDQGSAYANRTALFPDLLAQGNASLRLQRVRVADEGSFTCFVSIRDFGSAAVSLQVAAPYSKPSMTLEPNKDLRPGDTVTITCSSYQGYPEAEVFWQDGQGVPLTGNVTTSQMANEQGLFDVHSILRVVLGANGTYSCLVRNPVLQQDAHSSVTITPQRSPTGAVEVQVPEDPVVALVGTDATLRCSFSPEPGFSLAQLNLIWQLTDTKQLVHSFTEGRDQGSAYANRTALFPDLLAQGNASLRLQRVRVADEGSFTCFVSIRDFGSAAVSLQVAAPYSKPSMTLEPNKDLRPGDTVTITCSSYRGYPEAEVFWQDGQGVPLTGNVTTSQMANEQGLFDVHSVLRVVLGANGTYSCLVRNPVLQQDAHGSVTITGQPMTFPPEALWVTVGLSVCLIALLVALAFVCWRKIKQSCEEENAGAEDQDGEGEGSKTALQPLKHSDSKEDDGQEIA
Assay: Affinity determination by surface plasmon resonance (SPR) to 4Ig B7-H3
Conditions: SPR KD—37° C., 4Ig B7-H3; 37° C. flow cell temperature

Row | Kd [nM] | Compound
1 | < 1 | CC(=O)N[C@@H](CCC(C)C)C(=O)N[C@@H](Cc1ccc(O)cc1)C(=O)N[C@H]1CSSC[C@@H](C(=O)N[C@@H](Cc2c[nH]c3ccc(F)cc23)C(=O)N[C@@H](Cc2ccccc2)C(=O)N[C@H](C(=O)N[C@H](CCC(=O)O)C(N)=O)C(C)(C)O)NC(=O)[C@H](Cc2ccc(O)cc2)NC(=O)[C@H](C(C)C)NC(=O)[C@H](CC(=O)O)NC(=O)[C@H](CC2CCN(C(=O)CC[C@H](C(=O)O)N3CCN(CC(=O)O)CCN(CC(=O)O)CCN(CC(=O)O)CC3)CC2)NC(=O)[C@H](CC2CCNCC2)NC(=O)CNC(=O)[C@H](C(C)(C)C)NC1=O [compound 460, Ac-hLeu-Y-C-Tbg-G-PipAla-Pip(R-DOTAGA)Ala-D-V-Y-C-5FW-F-hydroxyVal-dGlu-CONH2] (Ac-[hLeu]YC[Tle]G[Ala(piperidin-4-yl)][Ala(piperidin-4-yl)](X4)DVYC[Trp(5-F)]F[Val(3-OH)][dE]-NH2; disulfide 3-11)
2 | < 1 | CC(=O)N[C@@H](CCC(C)C)C(=O)N[C@@H](Cc1ccc(O)cc1)C(=O)N[C@H]1CSSC[C@@H](C(=O)N[C@@H](Cc2cn(C)c3ccccc23)C(=O)N[C@@H](Cc2ccccc2)C(=O)N[C@H](C(=O)N[C@H](CCCCNC(=O)CN2CCN(CC(=O)O)CCN(CC(=O)O)CCN(CC(=O)O)CC2)C(=O)O)C(C)(C)O)NC(=O)[C@H](Cc2ccc(O)cc2)NC(=O)[C@H](C(C)C)NC(=O)[C@H](CC(=O)O)NC(=O)[C@H](CC2CCOCC2)NC(=O)[C@H](CC2CCNCC2)NC(=O)CNC(=O)[C@H](C(C)(C)C)NC1=O [compound 462, Ac-hLeu-Y-C-Tbg-G-PipAla-ThpA-D-V-Y-C-Trp(Me)-F-hydroxyVal-dLys(DOTA)-COOH] (Ac-[hLeu]YC[Tle]G[Ala(piperidin-4-yl)][Ala(4-THP)]DVYC[Trp(1-Me)]F[Val(3-OH)][dK](DOTA)-OH; disulfide 3-11)
3 | 1 to 10 | CC(=O)N[C@@H](CCC(C)C)C(=O)N[C@@H](Cc1ccc(O)cc1)C(=O)N[C@H]1CSSC[C@@H](C(=O)N[C@@H](Cc2c[nH]c3ccc(F)cc23)C(=O)N[C@@H](Cc2ccccc2)C(=O)N[C@H](C(=O)N[C@H](CCCCNC(=O)CN2CCN(CC(=O)O)CCN(CC(=O)O)CCN(CC(=O)O)CC2)C(=O)O)C(C)(C)O)NC(=O)[C@H](Cc2ccccc2O)NC(=O)[C@H](C(C)C)NC(=O)[C@H](CC(=O)O)NC(=O)[C@H](CC2CCOCC2)NC(=O)[C@H](CC2CCNCC2)NC(=O)CNC(=O)[C@H](C(C)(C)C)NC1=O [compound 467, Ac-hLeu-Y-C-Tbg-G-PipAla-ThpA-D-V-20HPhe-C-5FW-F-hydroxyVal-dLys(DOTA)-COOH] (Ac-[hLeu]YC[Tle]G[Ala(piperidin-4-yl)][Ala(4-THP)]DV[Phe(2-OH)]C[Trp(5-F)]F[Val(3-OH)][dK](DOTA)-OH; disulfide 3-11)
4 | < 1 | CC(=O)N[C@@H](CCC(C)C)C(=O)N[C@@H](Cc1ccc(O)cc1)C(=O)N[C@H]1CSSC[C@@H](C(=O)N[C@@H](Cc2c[nH]c3ccc(F)cc23)C(=O)N[C@H](C(=O)N[C@H](C(=O)N[C@H](CCCCNC(=O)CN2CCN(CC(=O)O)CCN(CC(=O)O)CCN(CC(=O)O)CC2)C(=O)O)C(C)(C)O)[C@H](O)c2ccccc2)NC(=O)[C@H](Cc2ccc(O)cc2)NC(=O)[C@H](C(C)C)NC(=O)[C@H](CC(=O)O)NC(=O)[C@H](CC2CCOCC2)NC(=O)[C@H](CC2CCNCC2)NC(=O)CNC(=O)[C@H](C(C)(C)C)NC1=O [compound 469, Ac-hLeu-Y-C-Tbg-G-PipAla-ThpA-D-V-Y-C-5FW-[(2S, 3R)beta-OH-Phe]-hydroxyVal-dLys(DOTA)-COOH] (Ac-[hLeu]YC[Tle]G[Ala(piperidin-4-yl)][Ala(4-THP)]DVYC[Trp(5-F)][Phe(3R-OH)][Val(3-OH)][dK](DOTA)-OH; disulfide 3-11)
5 | < 1 | CC(=O)N[C@@H](CCC(C)C)C(=O)N[C@@H](Cc1ccc(O)cc1)C(=O)N[C@H]1CSSC[C@@H](C(=O)N[C@@H](Cc2c[nH]c3ccc(F)cc23)C(=O)N[C@@H](Cc2ccccc2F)C(=O)N[C@H](C(=O)N[C@H](CCCCNC(=O)CN2CCN(CC(=O)O)CCN(CC(=O)O)CCN(CC(=O)O)CC2)C(=O)O)C(C)(C)O)NC(=O)[C@H](Cc2ccc(O)cc2)NC(=O)[C@H](C(C)C)NC(=O)[C@H](CC(=O)O)NC(=O)[C@H](CC2CCOCC2)NC(=O)[C@H](CC2CCNCC2)NC(=O)CNC(=O)[C@H](C(C)(C)C)NC1=O [compound 470, Ac-hLeu-Y-C-Tbg-G-PipAla-ThpA-D-V-Y-C-5FW-2FPhe-hydroxyVal-dLys(DOTA)-COOH] (Ac-[hLeu]YC[Tle]G[Ala(piperidin-4-yl)][Ala(4-THP)]DVYC[Trp(5-F)][Phe(2-F)][Val(3-OH)][dK](DOTA)-OH; disulfide 3-11)
6 | 1 to 10 | CC(=O)N[C@@H](CCC(C)C)C(=O)N[C@@H](Cc1ccc(O)cc1)C(=O)N[C@H]1CSSC[C@@H](C(=O)N[C@@H](Cc2c[nH]c3ccc(C)cc23)C(=O)N[C@@H](Cc2ccccc2)C(=O)N[C@H](C(=O)N[C@H](CCCCNC(=O)CN2CCN(CC(=O)O)CCN(CC(=O)O)CCN(CC(=O)O)CC2)C(=O)O)C(C)(C)O)NC(=O)[C@H](Cc2ccc(O)cc2)NC(=O)[C@H](C(C)C)NC(=O)[C@H](CC(=O)O)NC(=O)[C@H](CC2CCOCC2)NC(=O)[C@H](CC2CCNCC2)NC(=O)CNC(=O)[C@H](C(C)(C)C)NC1=O [compound 471, Ac-hLeu-Y-C-Tbg-G-PipAla-ThpA-D-V-Y-C-5MeW-F-hydroxyVal-dLys(DOTA)-COOH] (Ac-[hLeu]YC[Tle]G[Ala(piperidin-4-yl)][Ala(4-THP)]DVYC[Trp(5-Me)]F[Val(3-OH)][dK](DOTA)-OH; disulfide 3-11)
7 | 1 to 10 | CC(=O)N[C@@H](CCC(C)C)C(=O)N[C@@H](Cc1ccc(O)cc1)C(=O)N[C@H]1CSSC[C@@H](C(=O)N[C@@H](Cc2c[nH]c3cccc(Cl)c23)C(=O)N[C@@H](Cc2ccccc2)C(=O)N[C@H](C(=O)N[C@H](CCCCNC(=O)CN2CCN(CC(=O)O)CCN(CC(=O)O)CCN(CC(=O)O)CC2)C(=O)O)C(C)(C)O)NC(=O)[C@H](Cc2ccc(O)cc2)NC(=O)[C@H](C(C)C)NC(=O)[C@H](CC(=O)O)NC(=O)[C@H](CC2CCOCC2)NC(=O)[C@H](CC2CCNCC2)NC(=O)CNC(=O)[C@H](C(C)(C)C)NC1=O [compound 472, Ac-hLeu-Y-C-Tbg-G-PipAla-ThpA-D-V-Y-C-4ClW-F-hydroxyVal-dLys(DOTA)-COOH] (Ac-[hLeu]YC[Tle]G[Ala(piperidin-4-yl)][Ala(4-THP)]DVYC[Trp(4-Cl)]F[Val(3-OH)][dK](DOTA)-OH; disulfide 3-11)
8 | 1 to 10 | CC(=O)N[C@@H](CCC(C)C)C(=O)N[C@@H](Cc1ccc(O)cc1)C(=O)N[C@H]1CSSC[C@@H](C(=O)N[C@@H](Cc2c[nH]c3cccc(C)c23)C(=O)N[C@@H](Cc2ccccc2)C(=O)N[C@H](C(=O)N[C@H](CCCCNC(=O)CN2CCN(CC(=O)O)CCN(CC(=O)O)CCN(CC(=O)O)CC2)C(=O)O)C(C)(C)O)NC(=O)[C@H](Cc2ccc(O)cc2)NC(=O)[C@H](C(C)C)NC(=O)[C@H](CC(=O)O)NC(=O)[C@H](CC2CCOCC2)NC(=O)[C@H](CC2CCNCC2)NC(=O)CNC(=O)[C@H](C(C)(C)C)NC1=O [compound 473, Ac-hLeu-Y-C-Tbg-G-PipAla-ThpA-D-V-Y-C-4MeW-F-hydroxyVal-dLys(DOTA)-COOH] (Ac-[hLeu]YC[Tle]G[Ala(piperidin-4-yl)][Ala(4-THP)]DVYC[Trp(4-Me)]F[Val(3-OH)][dK](DOTA)-OH; disulfide 3-11)
9 | 1 to 10 | CC(=O)N[C@@H](CCC(C)C)C(=O)N[C@@H](Cc1ccc(O)cc1)C(=O)N[C@H]1CSSC[C@@H](C(=O)N[C@@H](Cc2c[nH]c3ccc(F)cc23)C(=O)N[C@@H](Cc2ccccc2)C(=O)N[C@H](C(=O)N[C@H](CCC(=O)O)C(N)=O)C(C)(C)O)NC(=O)[C@H](Cc2ccc(O)cc2)NC(=O)[C@H](C(C)C)NC(=O)[C@H](CC(=O)O)NC(=O)[C@H](CC2CCOCC2)NC(=O)[C@H](CC2CCN(C(=O)CCOCCOCCNC(=O)CN3CCN(CC(=O)O)CCN(CC(=O)O)CCN(CC(=O)O)CC3)CC2)NC(=O)CNC(=O)[C@H](C(C)(C)C)NC1=O [compound 474, Ac-hLeu-Y-C-Tbg-G-Pip(PEG2-DOTA)Ala-ThpA-D-V-Y-C-5FW-F-hydroxyVal-dGlu-CONH2] (Ac-[hLeu]YC[Tle]G[Ala(piperidin-4-yl)]([PEG2-DOTA])[Ala(4-THP)]DVYC[Trp(5-F)]F[Val(3-OH)][dE]-NH2; disulfide 3-11)
10 | < 1 | CC(=O)N[C@@H](CCC(C)C)C(=O)N[C@@H](Cc1ccc(O)cc1)C(=O)N[C@H]1CSSC[C@@H](C(=O)N[C@@H](Cc2c[nH]c3ccc(F)cc23)C(=O)N[C@@H](Cc2ccccc2)C(=O)N[C@H](C(=O)N[C@H](CCC(=O)O)C(N)=O)C(C)(C)O)NC(=O)[C@H](Cc2ccc(O)cc2)NC(=O)[C@H](C(C)C)NC(=O)[C@H](CC(=O)O)NC(=O)[C@H](CC2CCOCC2)NC(=O)[C@H](CC2CCN(C(=O)CC[C@H](C(=O)O)N3CCN(CC(=O)O)CCN(CC(=O)O)CCN(CC(=O)O)CC3)CC2)NC(=O)CNC(=O)[C@H](C(C)(C)C)NC1=O [compound 476, Ac-hLeu-Y-C-Tbg-G-Pip(R-DOTAGA)Ala-ThpA-D-V-Y-C-5FW-F-hydroxyVal-dGlu-CONH2] (Ac-[hLeu]YC[Tle]G[Ala(piperidin-4-yl)](X4)[Ala(4-THP)]DVYC[Trp(5-F)]F[Val(3-OH)][dE]-NH2; disulfide 3-11)
